pEC50, pIC50: −log10 of the molar value.

In test [1] the target is T1, PD-L1 (Homo sapiens, UniProt Q9NZQ7).
T1 construct: determine if they can specifically dimerize the extracellular domains of PD-L1
Description: PD-L1/PD-L1 dimerization biochemical protein-protein interaction assay (ALPHA). It is filed as binding. The conditions noted are these: compound-induced PD-L1 dimerization, head prints '1 nM' (0.5 nM His-tagged PD-L1 and 0.5 nM FLAG-tagged PD-L1), read-out: AC50 PDL1 Dimer Alpha 1 nM. The procedure, abridged: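 After 2 h at 25 °C with compound, His- and FLAG-tagged PD-L1 ECDs (each 0.5 nM final; 25 mM Hepes pH 7.4, 150 mM NaCl) were detected by sequential anti-His acceptor and anti-FLAG donor bead incubations. Dose-response curves fitted to four-parameter equation for AC50.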

Test [2] addresses PD-1/PD-L1 (Homo sapiens, UniProt Q9NZQ7). Description: PD-1/PD-L1 biochemical protein-protein interaction assay (ALPHA). It is filed as binding. The conditions noted are these: 0.3 nM His tagged PD-L1, 2.5 nM biotinylated Fc-PD-1, 60 minutes at 25° C., read-out: IC50 PD-L1-PD-1 Alpha IC50-mono PD-L1-fcP-D1. In a few lines:
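Bead proximity read-out: compound-driven loss of ALPHA signal between anti-His acceptor and streptavidin donor beads (20 μg/mL acceptor). Proteins: 0.3 nM His-PD-L1, 2.5 nM biotin-Fc-PD-1, final. 60 min, 25° C, Hepes pH 7.4 buffer. IC50 via four-parameter dose-response fit.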

Test [3] addresses T2, PD-1/PD-L1 interaction (Homo sapiens, UniProt Q9NZQ7).
T2 construct: expressed in transfected cells; host or cells: CHO cells (aAPC-PD-L1) co-cultured with Jurkat cells overexpressing PD-1 and an NFAT-luciferase reporter
Description: PD-1/PD-L1 NFAT reporter co-culture assay. It is filed as cell-based. To be noted: Jurkat PD-1 NFAT-luciferase cells co-cultured with aAPC-PD-L1 CHO cells, 6 hrs at 37° C.; read-out: EC50 NFAT Luciferase. In a few lines: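 First, CHO cells displaying anti-CD3 antibody and PD-L1 were plated overnight. Next, compound-treated PD-1 Jurkat NFAT-luciferase reporter cells in 2% FBS RPMI were added for 6 h at 37 °C. Finally, ONE-Glo luminescence was read and EC50 values fitted with a four-parameter equation.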

T2 sequence (Q9NZQ7 19-290): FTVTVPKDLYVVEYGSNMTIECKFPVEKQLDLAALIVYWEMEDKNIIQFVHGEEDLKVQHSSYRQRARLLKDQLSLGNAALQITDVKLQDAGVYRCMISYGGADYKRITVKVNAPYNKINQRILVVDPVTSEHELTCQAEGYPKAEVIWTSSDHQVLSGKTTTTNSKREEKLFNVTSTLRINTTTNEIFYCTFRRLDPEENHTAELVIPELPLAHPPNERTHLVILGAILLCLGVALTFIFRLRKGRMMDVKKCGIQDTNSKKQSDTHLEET
T1 sequence (Q9NZQ7 19-238 limits assumed): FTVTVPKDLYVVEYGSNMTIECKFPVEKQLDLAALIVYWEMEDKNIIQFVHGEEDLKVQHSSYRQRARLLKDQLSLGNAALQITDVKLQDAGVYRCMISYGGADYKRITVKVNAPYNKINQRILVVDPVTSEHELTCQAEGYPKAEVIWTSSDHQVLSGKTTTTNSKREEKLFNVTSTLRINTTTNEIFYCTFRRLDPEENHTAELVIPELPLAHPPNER
T1 sequence (Q9NZQ7 19-238 limits assumed): as above
Chain of PD-1/PD-L1 (Q9NZQ7 19-238 limits assumed): as above

`Cc1c(COc2cc(OCc3cncc(C#N)c3)c(CN[C@@](C)(CO)C(=O)O)cc2Cl)cccc1-c1cccc(-c2ccc(CNCCCS(N)(=O)=O)cc2)c1C` [Example 570]: the AC50 (as a rule, the concentration giving half of the maximal activity seen) in test [1] amounted to 56.5 nM. The pIC50 – broadly, the negative decadic logarithm of the IC50, by convention in mol/L – in test [2] is 10.04. In test [3], the pEC50 – broadly, −log10 of the EC50, conventionally taken in molar units – was 6.94.
On the same counts, the results for `Cc1c(COc2cc(OCc3cncc(C#N)c3)c(CN[C@@](C)(CO)C(=O)O)cc2Cl)cccc1-c1cccc(-c2ccc(CNCCS(C)(=O)=O)cc2)c1C` [Example 571] are 156 nM, 10.04 and 6.90.
For `Cc1c(COc2cc(OCc3cncc(C#N)c3)c(CNC[C@@H](O)CC(=O)O)cc2Cl)cccc1-c1cccc(-c2ccc(CN[C@H]3CCCNC3=O)cc2)c1C` [Example 572] the same measures were 453 nM, 9.37 and 6.89.
On the same counts, the results for `Cc1c(COc2cc(OCc3cncc(C#N)c3)c(CN[C@@](C)(CO)C(=O)O)cc2Cl)cccc1-c1cccc(-c2ccc(CN[C@H]3CCCNC3=O)cc2)c1C` [Example 573] are 215 nM, 9.81 and 6.92.
As for `Cc1c(COc2cc(OCc3cncc(C#N)c3)c(CNC[C@@H](O)CC(=O)O)cc2Cl)cccc1-c1cccc(-c2ccc(CNC[C@@H]3CCC(=O)N3)cc2)c1C` [Example 574], the AC50 in test [1] was 56 nM. Moreover, in test [2], the negative logarithm of the IC50 (pIC50) was 10.15. In test [3], the negative-log EC50 (pEC50) was 7.14.
In the case of `Cc1c(COc2cc(OCc3cncc(C#N)c3)c(CN[C@@](C)(CO)C(=O)O)cc2Cl)cccc1-c1cccc(-c2ccc(CNC[C@@H]3CCC(=O)N3)cc2)c1C` [Example 575], in test [1], the AC50 was 40.6 nM. The pIC50 in test [2] was 10.14. The pEC50 in test [3] was 7.47.
On the same counts, the results for `N#Cc1cc(C#N)cc(COc2nc(OCc3cccc(-c4cccc(-c5ccc(CNC[C@@H]6CCC(=O)N6)cc5)c4Cl)c3Cl)c(Cl)cc2CNC[C@@H](O)CC(=O)O)c1` [Example 576] are 24.3 nM, 9.77 and 7.49.
On the same counts, the results for `C[C@@](CO)(NCc1cc(Cl)c(OCc2cccc(-c3cccc(-c4ccc(CNC[C@@H]5CCC(=O)N5)cc4)c3Cl)c2Cl)nc1OCc1cc(C#N)cc(C#N)c1)C(=O)O` [Example 577] are 9.73 nM, 10.19 and 7.80.
For `CC(C)(NCc1cc(Cl)c(OCc2cccc(-c3cccc(-c4ccc(OCCNCCO)cc4)c3Cl)c2Cl)nc1OCc1cc(C#N)cc(C#N)c1)C(=O)O` [Example 578] the same measures were 37.2 nM, 9.95 and 6.87.
Regarding `Cc1c(COc2cc(OCc3cncc(C#N)c3)c(CN[C@@](C)(CO)C(=O)O)cc2Cl)cccc1-c1cccc(-c2ccc(CN3CC4(CCC(=O)N4)C3)cc2)c1C` [Example 579], the half-maximal activity concentration (AC50) in test [1] was found to be 34.8 nM. In addition, in test [2], the pIC50 is 10.19. Moreover, the pEC50 in test [3] is 6.72.
On the same counts, the results for `Cc1c(COc2cc(OCc3cncc(C#N)c3)c(CN[C@@](C)(CO)C(=O)O)cc2Cl)cccc1-c1cccc(-c2ccc(CNCCn3ccnn3)cc2)c1C` [Example 580] are 231 nM, 9.67 and 6.70.
On the same counts, the results for `Cc1c(COc2nc(OCc3cncc(C#N)c3)c(CN[C@@](C)(CO)C(=O)O)cc2Cl)cccc1-c1cccc(-c2ccc(OCCNCCO)cc2)c1C` [Example 581] are 60.3 nM, 9.74 and 6.80.
Consider `Cc1c(COc2cc(OCc3cncc(C#N)c3)c(CN3CC[C@@H](O)C3)cc2Cl)cccc1-c1cccc(-c2ccc(CN3CC(CC(=O)O)C3)cc2)c1C` [Example 582], for which, in test [1], the half-maximal activity concentration (AC50) is 347 nM. Further, the pIC50 in test [2] was 8.88. Moreover, in test [3], the negative-log EC50 (pEC50) is 6.83.
On the same counts, the results for `Cc1c(COc2cc(OCc3cncc(C#N)c3)c(CN[C@@H]3CCC[C@@H]3O)cc2Cl)cccc1-c1cccc(-c2ccc3c(c2)CCC3N2CC3(CC(C(=O)O)C3)C2)c1C` (stereo partly drawn) [Example 583] are 38.3 nM, 9.53 and 6.74.
For `Cc1c(COc2cc(OCc3cncc(C#N)c3)c(CN[C@@H]3CCC[C@@H]3O)cc2Cl)cccc1-c1cccc(-c2ccc3c(c2)CCC3N2CC[C@H](CC(=O)O)C2)c1C` (stereo partly drawn) [Example 584] the same measures were 38.6 nM, 9.91 and 6.83.
On the same counts, the results for `CC(=O)N1CC2(CN(Cc3cn(C)c4nc(-c5cccc(-c6cccc(-c7cnc8c(CN9CC%10(C9)CN(C(C)=O)C%10)cn(C)c8n7)c6Cl)c5Cl)cnc34)C2)C1` [Example 587] are 324 nM, 9.84 and 7.35.
As for `Cn1cc(CN2CC3(CNC(=O)C3)C2)c2ncc(-c3cccc(-c4cccc(-c5cnc6c(CN7CC8(CNC(=O)C8)C7)cn(C)c6n5)c4Cl)c3Cl)nc21` [Example 588], in test [1], the AC50 is 206 nM. In addition, in test [2], the pIC50 was 10.09. In addition, the pEC50 in test [3] was 7.30.
For `Cn1cc(CN2CC3(CCC(=O)N3)C2)c2ncc(-c3cccc(-c4cccc(-c5cnc6c(CN7CC8(CCC(=O)N8)C7)cn(C)c6n5)c4Cl)c3Cl)nc21` [Example 589] the same measures were 164 nM, 9.79 and 7.05.
On to `COc1nc(-c2cccc(-c3cccc(COc4nc(OC)c(CNC[C@@H](O)CC(=O)O)cc4Cl)c3Cl)c2Cl)ccc1CNC[C@@H]1CCC(=O)N1` [Example 590], for which, in test [1], the concentration at half-maximal activity (AC50) came to 134 nM. The negative logarithm of the IC50 (pIC50) in test [2] is 9.73. Besides, the pEC50 in test [3] is 6.85.
On the same counts, the results for `COc1nc(O[C@H]2CCc3c(-c4cccc(-c5cc(C)c(CNC[C@@H]6CCC(=O)N6)c(OC)n5)c4Cl)cccc32)c(Cl)cc1CNC[C@@H]1CCC(=O)N1` [Example 591] are 22.7 nM, 10.19 and 7.70.
Take `Cc1c(COc2cc(OCc3cncc(C#N)c3)c(CNC[C@@H](O)CC(=O)O)cc2Cl)cccc1-c1cccc(-c2nc3ccc(CNC[C@@H](O)CC(=O)O)cc3o2)c1C` [Example 592]: in test [1], the AC50 is 107 nM. For the same molecule, in test [2], the negative logarithm of the IC50 (pIC50) is 10.02. The negative-log EC50 (pEC50) in test [3] is 6.76.
For `Cc1c(COc2cc(OCc3cncc(C#N)c3)c(CNC[C@@H](O)CC(=O)O)cc2Cl)cccc1-c1cccc(-c2nc3cc(CNC[C@@H](O)CC(=O)O)ccc3o2)c1C` [Example 593] the same measures were 124 nM, 10.19 and 6.95.
On the same counts, the results for `Cc1c(COc2cc(OCc3cncc(C#N)c3)c(CNC[C@@H](O)CC(=O)O)cc2Cl)cccc1-c1cccc(-c2nc3ccc(CNC[C@@H](O)CC(=O)O)cn3n2)c1C` [Example 595] are 77 nM, 10.19 and 7.19.
For `COc1nc(-c2cccc(-c3cccc(-c4cnn(CCN)c4)c3Cl)c2Cl)ccc1CNC[C@@H]1CCC(=O)N1` [Example 596, (S)-5-((((6-(3′-(1-(2-aminoethyl)-1H-pyrazol-4-yl)-2,2′-dichloro-[1,1′-biphenyl]-3-yl)-2-methoxypyridin-3-yl)methyl)amino)methyl)pyrrolidin-2-one] the same measures were 415 nM, 9.17 and 6.77.
With `COc1nc(-c2csc(-c3cccc(-c4ccc(CNC[C@@H]5CCC(=O)N5)c(OC)n4)c3Cl)c2)ccc1CNC[C@@H]1CCC(=O)N1` [Example 597, (S)-5-((((6-(2-chloro-3-(4-(6-methoxy-5-(((((S)-5-oxopyrrolidin-2-yl)methyl)amino)methyl)pyridin-2-yl)thiophen-2-yl)phenyl)-2-methoxypyridin-3-yl)methyl)amino)methyl)pyrrolidin-2-one], the AC50 in test [1] was found to be 310 nM. Further, the pIC50 in test [2] is 8.90. In test [3], the negative-log EC50 (pEC50) is 6.64.
For `COc1nc(-c2cccc(-c3cccc(-c4ccc5c(ccn5CCN(C)C)c4)c3Cl)c2Cl)ccc1CNC[C@@H]1CCC(=O)N1` [Example 598, (S)-5-((((6-(2,2′-dichloro-3′-(1-(2-(dimethylamino)ethyl)-1H-indol-5-yl)-[1,1′-biphenyl]-3-yl)-2-methoxypyridin-3-yl)methyl)amino)methyl)pyrrolidin-2-one] the same measures were 480 nM, 8.52 and 5.74.
For `COc1nc(-c2cccc(-c3cccc(N4Cc5cc(CN6CC7(C6)CN(C(C)=O)C7)ccc5C4=O)c3Cl)c2Cl)ccc1CN1CC2(C1)CN(C(C)=O)C2` [Example 599, 5-((6-acetyl-2,6-diazaspiro[3.3]heptan-2-yl)methyl)-2-(3′-(5-((6-acetyl-2,6-diazaspiro[3.3]heptan-2-yl)methyl)-6-methoxypyridin-2-yl)-2,2′-dichloro-[1,1′-biphenyl]-3-yl)isoindolin-1-one] the same measures were 7930 nM, 9.67 and no more than 4.30.

Values taken from patent publication US12590062B2, “PD-1/PD-L1 inhibitors” (Gilead Sciences, Inc., priority 2017, dated 2026).
